Values quoted from earlier work as cited in patent publication EP1379546B1, “PEPTIDE FOR THE DIAGNOSIS AND THERAPY OF ALZHEIMER'S DISEASE” (Leibniz-Institut für Altersforschung - …, priority 2001, dated 2002).

Biological target: Aβ (Homo sapiens, UniProt P05067)
Conditions: inhibition of Aβ fibril formation and anticytotoxic effect, reported in Tomiyama et al., J. Biol. Chem. 1996

Chain of Aβ (P05067 672-711 limits assumed): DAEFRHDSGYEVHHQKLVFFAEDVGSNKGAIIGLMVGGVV

Structure (SMILES) | Dissoziationskonstante
CO[C@H]1/C=C/O[C@@]2(C)Oc3c(C)c(O)c4c(O)c(c(/C=N/N5CCN(C)CC5)c(O)c4c3C2=O)NC(=O)/C(C)=C\C=C\[C@H](C)[C@H](O)[C@@H](C)[C@@H](O)[C@@H](C)[C@H](OC(C)=O)[C@@H]1C [Rifampicin] | µM- bis mM-Bereich
CCCCCCCCCCCCCCCC[N+]1(C)CCCCC1.[Br-] [Hexadecyl-N-methylpiperidiniumbromid] | µM- bis mM-Bereich
